Source: patent US5993860A, “NSADI delivery employing a powdered hydrocolloid gum obtainable from higher plants” (Venture Lending, priority 1997, dated 1999)
Where “and” joins values, the source holds several entries; their conditions need not be identical. Equal values may be shown once.

Tests used:
[1] = aspirin-induced gastric ulcer model in rats (ulcer severity grade); format: in vivo, rat (Sprague-Dawley male)
Procedure: Tests were conducted in the aspirin-induced gastric ulcer model. Rats were dosed as indicated below. Five hours after dosing, rats were sacrificed and stomachs were examined for the presence of gastric lesions. A total of 6 treatments were tested. Each treatment was tested in 12 rats. The treatments were prepared immediately prior to use. The aspirin treatments were prepared by suspending 2.00 grams of fine mesh aspirin in 100 ml water (plus 0.1% Tween 80) and then adding the specified amount (i.e. 0, 0.10, 1.00, or 5.00 grams) of Guar gum. The Guar gum 5.0% alone treatment was prepared as above except the aspirin was omitted. All dosing preparations were warmed to about 100° C.; uniformity of suspensions was ensured by constant stirring. Sprague-Dawley male rats, 148 to 190 grams, were individually-housed under standard Vivarium conditions. After arrival, rats were allowed to acclimate in house for a minimum of 5 days before initiation of testing. Rats were fasted (water ad libitum) for 18 hours prior to testing. Treatments 1-6, assigned to rats in random fashion, were administered orally (gavage) at the rate of 10 ml/kilogram (kg). Five hours after treatment, each rat was sacrificed by carbon dioxide inhalation. The abdomen was opened. The stomach was removed, opened along the greater curvature, examined for the presence of lesions, and assigned a severity grade according to the following scale: 0 No lesions 1<5 lesions, at least 1 lesion<2 mm 2<5 lesions, at least 1 lesion>2 mm 3 5 to 10 lesions, all<2 mm 4 5 to 10 lesions, at least 1 lesion>2 mm 5 >10 lesions, all<2 mm 6 >10 lesions, at least 1 lesion>2 mm In order to eliminate bias and reduce subjective variation, all ulcer grading in the study was performed in single-blind fashion by the same well-experienced grader. For each stomach, the severity score was recorded. Data are expressed using the absolute values. […] Statistical significance of differences between means were determined by analysis of variance followed by Neumann-Kuels multiple comparisons test.

[2] = ketoprofen-induced gastric damage in rats; format: in vivo, rat (male Wistar); settings: ketoprofen 100 mg/kg oral; 5 h after dosing; 15 rats
Procedure: In this example a dose of ketoprofen (100 mg/kg) was administered to rats to induce gastric damage and guar gum was coadministered to determine its effect. Both the ketoprofen and guar gum were administered as an aqueous mixture.
Seventy-five male Wistar rats each approximately 6 weeks of age and ranging in weight from 206 g to 233 g were housed 5 to a cage in suspended polypropylene cages with wire grid floors. The rats had access to tap water and were fed a standard certified laboratory rodent diet (RM1(E)SQC), ad libitam. Lighting in the animal room was controlled to give 12 hours light (0700-1900 hours) and 12 hours dark each day. The room temperature and relative humidity controls were set at 21° C.±3° C. and 50% ±15% respectively.
After an acclimatization period of 3 days following the day of arrival, the animals were randomized into groups according to bodyweight using random numbers tables so that the group mean bodyweights were approximately equal. Including the day of randomization, there were a further 3 days of acclimatization prior to dosing. […]
Five hours after dosing, the rats were sacrificed by carbon dioxide asphyxiation and the stomachs removed. Each stomach was opened along the greater curvature and examined macroscopically for damage in the glandular portion; any damage was subjectively scored using the following system: […]

SMILES | Ulcer Grade, mean ([1]; Table 5, severity scale 0-6, 5 h after oral gavage, 10 ml/kg, 12 rats) | stomachs with ulcer severity scores of 5 or greater ([1]; number of rats of 12) | mean ulcer severity (mean ± s.e.m.) ([1]; severity scale 0-6, 5 h after dosing) | Group mean score for gastric damage [2]
CC(=O)Oc1ccccc1C(=O)O [Aspirin, acetylsalicylic acid] | 5.8 | 11 of the 12 | 5.8 and 5.75±0.18 | 
CC(C(=O)O)c1cccc(C(=O)c2ccccc2)c1 (stereo not shown) [Ketoprofen] |  |  |  | 13.1
